Measurements from patent US20240226106A1, “INHIBITORS OF PLASMA KALLIKREIN” (SHIRE HUMAN GENETIC THERAPIES, INC., priority 2021, published 2024).

Tests used:
[1] = molecular target: human activated kallikrein enzyme (Homo sapiens, UniProt P03952); assay: Inhibition of human activated plasma kallikrein, fluorogenic peptide substrate (PFR-AMC), 500 pM enzyme format; type: biochemical; details: 500 pM activated kallikrein, 30 min preincubation, 10 min reaction, room temperature, read-out: Primary Dose Response Assay: Average EC50
Sequence of human activated kallikrein enzyme (P03952 391-638 limits assumed): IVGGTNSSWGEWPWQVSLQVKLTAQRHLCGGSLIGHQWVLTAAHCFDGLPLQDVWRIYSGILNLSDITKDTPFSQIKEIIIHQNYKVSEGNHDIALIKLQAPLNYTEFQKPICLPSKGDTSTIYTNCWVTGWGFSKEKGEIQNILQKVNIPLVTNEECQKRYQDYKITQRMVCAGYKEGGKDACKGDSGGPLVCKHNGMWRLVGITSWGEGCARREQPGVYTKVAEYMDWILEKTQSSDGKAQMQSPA
Sequence of human activated kallikrein enzyme (P03952 20-390 partner limits assumed): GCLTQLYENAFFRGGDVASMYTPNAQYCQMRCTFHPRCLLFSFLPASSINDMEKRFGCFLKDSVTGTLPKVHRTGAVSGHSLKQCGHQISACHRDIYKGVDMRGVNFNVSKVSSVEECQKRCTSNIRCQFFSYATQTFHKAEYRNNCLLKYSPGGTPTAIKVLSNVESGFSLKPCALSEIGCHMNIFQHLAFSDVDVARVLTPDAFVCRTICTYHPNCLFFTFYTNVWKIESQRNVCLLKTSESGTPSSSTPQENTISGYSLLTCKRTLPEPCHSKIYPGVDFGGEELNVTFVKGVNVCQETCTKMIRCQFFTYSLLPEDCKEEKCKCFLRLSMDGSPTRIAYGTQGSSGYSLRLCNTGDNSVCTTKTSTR
Summary of the method: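 Enzyme at 500 pM with […] PFR-AMC in 20 mM Tris pH 7.5, 1 mM EDTA, 150 mM NaCl, 0.1% PEG-400, 0.1% Triton X-100. Inhibitor preincubated 30 min, then 10 min reaction at room temperature; AMC fluorescence read at 380 nm excitation/460 nm emission.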

plasma kallikrein = molecular target: T1, plasma kallikrein (Homo sapiens, UniProt P03952); assay: Neat human plasma assay (fluorogenic peptide), contact pathway-activated plasma; type: biochemical; details: citrated human plasma, 10 nM human FXIIa activation, 100 μM PFR-AMC, room temperature; read-out: Human Plasma Assay: IC90
T1 construct: from tissue; host or cells: sodium citrate collected human plasma
T1 sequence (P03952 391-638 limits assumed): as the sequence (P03952 391-638 limits assumed) above
T1 sequence (P03952 20-390 partner limits assumed): as the sequence (P03952 20-390 partner limits assumed) above

Structure (SMILES)	EC50 [1] [nM]	IC90 (plasma kallikrein) [nM]
Cc1ccnc([C@H]2C[C@@H]2C(=O)Nc2cc(NCc3cc4cc(C5CC5)cc(N5CC(=O)N(C)C5=O)n4n3)ncn2)n1 [Example 101, (1S,2S)—N-(6-(((5-cyclopropyl-7-(3-methyl-2,4-dioxoimidazolidin-1-yl)pyrazolo[1,5-a]pyridin-2-yl)methyl)amino)pyrimidin-4-yl)-2-(4-methylpyrimidin-2-yl)cyclopropane-1-carboxamide]	< 2.5	< 500
Cc1ccnc([C@H]2C[C@@H]2C(=O)Nc2nncc(N[C@H](C)c3cc4cc(C5CC5)cc(N5CC6CC6C5=O)n4n3)n2)n1 (stereo partly drawn) [Example 105, (1S,2S)—N-(5-(((1R^•)-1-(5-cyclopropyl-7-(2-oxo-3-azabicyclo[3.1.0]hexan-3-yl)pyrazolo[1,5-a]pyridin-2-yl)ethyl)amino)-1,2,4-triazin-3-yl)-2-(4-methylpyrimidin-2-yl)cyclopropane-1-carboxamide]	< 2.5	< 500
